Earlier results as cited in patent publication US20100247673A1, “Thyroid protection in sickle cell anemia treatment” (priority 2009, published 2010).

Tested on: erythrocytes
Conditions: about 4 mols incorporated per mol of hemoglobin tetramer

For `N#C[O-].[K+]` [potassium cyanate], the “erythrocytes prevented from sickling” value is given as “up to 80%”.
